Consider one compound from patent publication US20180271847A1, “TREATMENT OF ACUTE TRAUMATIC INJURY” (priority 2015, published 2018).

For one test, the system named is sciatic nerve crush. Description: Electron microscopy of sciatic nerve after crush injury with local 4-AP PLGA films. In kind it is in vivo. An excerpt:
A comparison of the axonal area of randomly chosen individual axons of vehicle treated and 4-AP treated mice (n=4 for each experimental group; 40 axons analyzed per mouse) is shown. […] (**: p<0.01; ANOVA).
In the experiment below, mice received crush injuries to the sciatic nerve and then a sustained release formulation of 4-AP in a PLGA formulation (4-AP films) was applied locally at the site of injury. At the time that nerve conduction velocity began to recover, nerves were isolated and studied by electron microscopy. […] In uninjured myelinated axons, the average area of a myelinated axon (excluding the myelin) was 11.2+/−1.3 μm^2. In injured nerves treated with PLGA film only, the average area of myelinated axons decreased to 5.7+/−0.2 μm^2 (FIG. 9A). In nerves treated with 4-AP-containing films, the average area of myelinated axons was 6.7+/−0.4 μm^2 (p<0.05 versus mice treated only with film). In addition, the proportion of axons with areas above the average value for uninjured nerves was 5+/−3% in injured nerves treated with vehicle alone but increased to 15+/−2% in nerves treated with 4-AP containing films (p<0.05).
On day 21 after injury, the average thickness of the myelin within the injured area was 0.53+/−0.03 μm but was 0.95+/−0.14 μm with localized 4-AP administration (p<0.01), as compared with an average myelin thickness in uninjured nerves of 1.26+/−0.08 μm. […] The myelin area was also measured (FIG. 9C, D) and it was determined that the average cross-sectional area of myelin per myelinated large axon in uninjured nerve was 14.8+/−1.7 μm^2, 4.9+/−0.3 μm^2 in injured nerve, and was restored to 10.1+/−0.7 μm^2 with localized 4-AP administration (p<0.01). In 4-AP treated mice, 21.2+/−9.3% of axons had myelin areas that were above the average for uninjured nerve, while this value in vehicle-treated mice was only 1.9+/−1.4%.
The benefits of treatment were also observed by analysis of the ratio of the area of the axon to the area of the axon plus associated myelin. This g^area ratio, a variant of the usually employed g-ratio, was calculated due to the decreased circularity in injured nerve. […] However, with local 4-AP treatment, the g^area-ratio was in the normal range of 0.43+/−0.09 (p<0.01) (FIG. 9D).
The number of total myelinated axons per TEM grid examined (2310 μm^2) was 82+/−5 axons in undamaged nerve, as compared with 55+/−4 axons in injured vehicle-treated mice and 71+/−4 axons in 4-AP treated mice (p<0.01 for vehicle-treated vs. 4-AP treated mice).

Test [1] deals with skeletal muscle atrophy. The test can be described thus: Skeletal muscle atrophy after complete denervation (nerve transection). In kind it is in vivo. On the procedure: Treatment with 4AP decreased muscle expression of MuRF-1 (FIG. 11A) and myogenin (FIG. 11B) (both normalized to GADPH) after complete denervation. […] Thus, the beneficial effects of 4AP on parameters of atrophy were not dependent on restoration of normal motor usage. *=p<0.05; ** p<0.01.
In this example, the nerve innovating the extensor digitorum longus muscle was completely transected 15-25 mm distant from the muscle. 4-AP was then administered during the acute and subacute post-injury periods.

Test [2] deals with skeletal muscle atrophy. The test can be described thus: Skeletal muscle atrophy after sciatic nerve crush injury. Format: in vivo, mouse. An excerpt:
FIGS. 10A-10F show the rescue of skeletal muscle from atrophy induced by crush injury to the sciatic nerve by daily administration of clinically relevant dosages of 4-AP.
These stem cells are believed to play roles in preventing and/or repairing muscle atrophy.
In particular, 4-AP was applied as a means of preventing skeletal muscle atrophy following damage to the nerve innervating muscles of limb, as illustrated in FIG. 10. In these experiments, the sciatic nerve of the mouse was crushed in such a manner that not all axons were severed. In these injuries, skeletal muscle atrophy is a significant consequence, just as it is in patients with similar injuries. This type of injury can be a problem for many reasons, including the fact that if atrophy is not stopped or reversed within a relatively short period of time, the damage done may become irreversible.

In test [3] the test system is contusion injuries to the spinal cord. Description: Behavioral analysis of motor function after spinal cord contusion injury. In kind it is in vivo, Long Evans rats. The settings on record: rats. On the procedure: Experiments were initiated with behavioral analysis of rats receiving contusion injuries to the spinal cord, which is one of the most widely studied of all experimental models of traumatic injury. 8-10 week old Long Evans rats (female) underwent laminectomy at thoracic vertebrae 9 and a 200 kilodyne impact was delivered to the spinal cord using an the Infinite Horizons impactor. Animals were allowed to recover on a heated pad and then treatment was started 24 hours after surgery in order to determine whether a clinically useful window of opportunity for initiation of treatment exists for use of this intervention. Animals received 1 mg/kg 4-AP twice a day for seven days, then received 1 mg/kg 4-AP […] for the following seven days. After two weeks, the animals were taken off 4-AP entirely and allowed to continue for 2 weeks to test for stability of recovery.
FIGS. 1-4 provide evidence of enhanced recovery of a variety of aspects of motor function. […] Of particular interest were observations that when rats were switched to once-a-day administration of 4-AP and all behavioral analyses were conducted at a time point when the 4-AP half-life in rats predicts that levels in vivo were far below those necessary to observe any effects on motor function, recovery of function was still seen at a time when active levels of 4-AP would not have been present. […] FIG. 2 provides information on the speed of the paw during its swing movement (i.e., stride length/swing time). […] FIG. 3 provides information on the distance between the outer toes (i.e., toe spread), a sensitive indicator of normal motor function in the foot itself. […] In contrast, rats treated with 4-AP show normal behavior beginning 10 days post-injury, and this behavior is maintained when drug treatment ends at day 14. FIG. 4 provides information on the length of the foot print, a sensitive indicator of normal motor function in the foot itself. […] In contrast, rats treated with 4-AP show normal behavior beginning 10 days post-injury, and this behavior is maintained when drug treatment ends at day 14. All improvements were durable when treatment was stopped at 2 weeks post-injury.

Setting [4] is: mice, localized 4-AP (PLGA films).
Where [5] appears, read: after complete denervation, daily 4-AP.
Where [6] appears, read: mouse, sciatic nerve crush injury.
Where [7] appears, read: spinal cord contusion, 1 mg/kg 4-AP for 14 days, maintained after treatment ends at day 14.

Turning to `Nc1ccncc1` [4-AP, 4-aminopyridine], the “myelinated axons with a g^area-ratio less than the average for uninjured mice” value in the test with sciatic nerve crush (21 days after injury) is 54.4+/−18.5%. Besides, the “average g^area-ratio (area of the axon to area of the axon plus associated myelin)” value with sciatic nerve crush (mice, 21 days after injury, local 4-AP treatment) is 0.43+/−0.09. Further, the “number of total myelinated axons per TEM grid examined (2310 μm^2)” value in the test with sciatic nerve crush (mice, 21 days post injury) is reported as 71+/−4 axons. In addition, in the test with sciatic nerve crush (mice, day 21, localized 4-AP (PLGA films)), the “axons with myelin thickness above the average for uninjured nerve” value is given as 21.4+/−10.8%. Besides, the “average thickness of the myelin within the injured area” value in the test on sciatic nerve crush (mice, day 21 after injury, localized 4-AP (PLGA films)) is listed as 0.95+/−0.14 μm. For the same compound, in the test with sciatic nerve crush (setting [4]), the “average cross-sectional area of myelin per myelinated large axon” value is recorded as 10.1+/−0.7 μm^2 and the “axons with myelin areas above the average for uninjured nerve” value is reported as 21.2+/−9.3%. Besides, in the test with skeletal muscle atrophy [1] (setting [5]), the “muscle expression of MuRF-1 (normalized to GADPH)” value is “decreased” and the “muscle expression of myogenin (normalized to GADPH)” value is reported as “decreased”. For the same compound, the “recovery of gait function” value with skeletal muscle atrophy [1] (denervated animals) is “did not show any recovery of gait function”. For the same compound, the “numbers of Pax7+ muscle stem cells” value in the test with skeletal muscle atrophy [2] (both at 7 days and 14 days post nerve crush injury) is recorded as “increased the numbers of Pax7+ cells”. In addition, in the test on skeletal muscle atrophy [2] (mice, 7 days after nerve crush injury, daily 4-AP), the muscle strength result is reported as “greater muscle strength as compared with saline-treated mice”. Also, in the test with skeletal muscle atrophy [2] (setting [6]), the “expression of MuRF-1 in muscle” value is “decreases expression of MuRF-1” and the “expression of myogenin in muscle” value was “decreases expression of myogenin”. Further, the “muscle atrophy judged by cross-sectional size of muscle” value in the test on skeletal muscle atrophy [2] (mouse, sciatic nerve crush injury, daily 4-AP) was “decreases muscle atrophy”. Further, the “Basso, Beattie and Bresnahan (BBB) scores, recovery versus placebo (saline)” value in test [3] (200 kilodyne contusion at thoracic vertebrae 9, 1 mg/kg 4-AP twice a day for seven days then seven further days, started 24 hours after surgery) was “significant improvement over placebo (saline) treated rats as early as 3 days after treatment”. Besides, in test [3] (setting [7]), the “length of the foot print: normal behavior beginning” value was 10 days post-injury and the “toe spread (distance between the outer toes): normal behavior beginning” value was found to be 10 days post-injury. Besides, the “return to normal swing speed (stride length/swing time)” value in test [3] (spinal cord contusion, 1 mg/kg 4-AP for 14 days, normal defined by sham surgery group, maintained after treatment ends at day 14) is listed as at most 10 days post-injury. Moreover, in test [3] (spinal cord contusion, 1 mg/kg 4-AP for 14 days, through the rest of the 28 days of analysis), the “motor function after treatment was stopped 14 days after injury” value is given as “durable improvements in motor function”.
